Assay results from US20120035112A1, “NEURONAL DIFFERENTIATION-INDUCING PEPTIDE AND USE THEREOF” (Toagosei Co., Ltd., priority 2009, published 2012).

Tested on: mouse neuronal stem cells
Test: Evaluation of neuronal differentiation-inducing activities of synthesized peptides (β3-tubulin fluorescence antibody method, DAPI nuclear stain)
Type: cell-based
Settings: peptide 0.5 μM, 7 days culture in mouse neuronal stem cell growth medium; compared with positive control (differentiation medium, FIG. 16)
Experimental: The neuronal differentiation-inducing activities of the synthesized peptides obtained in Example 1 (Samples 1 to 15) were examined.
That is, the sample peptide was added to a culture broth of neuronal stem cells collected from a mouse (mouse neuronal stem cell growth medium, a product of Cell Applications), and incubated. Addition was carried out to a concentration of 0.5 μM for each peptide.
Next, once 7 days had elapsed following peptide addition, each of the cultured cells was nuclear stained with DAPI (4′,6-diamidino-2-phenylindole) and examined with a fluorescence microscope. In addition, evaluation with a neuronal differentiation induction marker was carried out on the same samples. That is, using tubulin (specifically, β3-tubulin) as the marker for identifying neurons (nerve cells), the presence of tubulin (i.e., the presence or absence of neurons) within the culture solution was checked by a fluorescence antibody method using a fluorochrome-labeled anti-tubulin antibody for tubulin identification. The number of each figure corresponds to the number of the sample peptide used.
Each of these figures is a fluorescence micrograph (image) obtained by examining the state of neuronal differentiation by mouse neuronal stem cells following addition of the respective sample peptides and 7 days of culturing. The image was prepared by merging a DIC image, a DAPI nuclear stain image, and a fluorescence image showing the results of an investigation by an immune antibody method using fluorochrome-labeled anti-tubulin antibody.
(§1) As a positive control, mouse neuronal stem cells were cultured in a mouse neuronal stem cell differentiation medium (product of Cell Applications) without adding any of the peptides. When 7 days had elapsed following the start of culturing, treatment and fluorescence microscopic examination were carried out in the same way as described above.
as §1, with “negative” for “positive”, “[…]” for “differentiation”

## LLLLAAWTARAGKKRTLRKNDRKKR [Sample 2]
  neuronal differentiation-inducing activity: particularly high neuronal differentiation-inducing activities

## LALLLLAAWTVRAGKKRTLRKNDRKKR [Sample 6]
  neuronal differentiation-inducing activity: particularly high neuronal differentiation-inducing activities

## LLLLAAWTVRAGKKRTLRKNDRKKR [Sample 8]
  neuronal differentiation-inducing activity: particularly high neuronal differentiation-inducing activities

## ALLLLAAWTVRAGKKRTLRKNDRKKR [Sample 7]
  neuronal differentiation-inducing activity: particularly high neuronal differentiation-inducing activities
